Test results taken from ChEMBL document CHEMBL1250451, “Mechanistic insights into a Ca2+-dependent family of alpha-mannosidases in a human gut symbiont” (Nat Chem Biol, 2010).

What was measured:
Type in all cases: protein assay
[1] = target: T1, Alpha-1,2-mannosidase (BT_3990) (Bacteroides thetaiotaomicron) (UniProt Q8A0N1); test: Activity of Bacteroides thetaiotaomicron GH92 alpha-mannosidase 3990 assessed as recovery of enzyme activity at 1 mM in presence of 7 mM Mn(2+) ions and in presence of 5 mM EGTA in 100 mM pH 7 MOPS buffer relative to enzyme activity in presence of calcium
T1 sequence (whole entry): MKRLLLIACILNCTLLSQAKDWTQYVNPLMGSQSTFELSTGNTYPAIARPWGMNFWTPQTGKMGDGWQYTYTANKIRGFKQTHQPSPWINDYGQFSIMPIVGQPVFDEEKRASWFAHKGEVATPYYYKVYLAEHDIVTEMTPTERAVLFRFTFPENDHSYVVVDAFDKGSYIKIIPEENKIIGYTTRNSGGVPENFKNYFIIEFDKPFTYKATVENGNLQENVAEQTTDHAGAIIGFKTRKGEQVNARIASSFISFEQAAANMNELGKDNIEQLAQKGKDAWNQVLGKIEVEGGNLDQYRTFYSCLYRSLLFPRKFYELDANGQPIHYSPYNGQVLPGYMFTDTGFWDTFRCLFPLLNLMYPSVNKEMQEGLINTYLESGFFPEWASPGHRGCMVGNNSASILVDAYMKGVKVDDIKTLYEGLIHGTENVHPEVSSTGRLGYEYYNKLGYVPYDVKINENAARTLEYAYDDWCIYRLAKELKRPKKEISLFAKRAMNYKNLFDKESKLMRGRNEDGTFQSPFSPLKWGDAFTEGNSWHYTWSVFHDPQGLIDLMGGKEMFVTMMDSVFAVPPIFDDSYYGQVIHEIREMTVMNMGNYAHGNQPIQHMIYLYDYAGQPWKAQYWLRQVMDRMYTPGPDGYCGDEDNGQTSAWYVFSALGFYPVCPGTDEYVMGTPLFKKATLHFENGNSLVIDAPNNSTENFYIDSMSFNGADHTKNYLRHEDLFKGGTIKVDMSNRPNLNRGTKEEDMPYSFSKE

[2] = target: T1, Alpha-1,2-mannosidase (BT_3990) (Bacteroides thetaiotaomicron); test: Activity of Bacteroides thetaiotaomicron GH92 alpha-mannosidase 3990 assessed as recovery of enzyme activity at 1 mM in presence of 7 mM Ba(2+) ions and in presence of 5 mM EGTA in 100 mM pH 7 MOPS buffer relative to enzyme activity in presence of calcium
[3] = target: T2, Alpha-1,2-mannosidase (BT_2199) (Bacteroides thetaiotaomicron) (UniProt Q8A5N9); test: Activity of Bacteroides thetaiotaomicron GH92 alpha-mannosidase 2199 assessed as recovery of enzyme activity at 1 mM in presence of 7 mM Be(2+) ions and in presence of 5 mM EDTA in 100 mM pH 7 MOPS buffer relative to enzyme activity in presence of calcium
T2 sequence (whole entry): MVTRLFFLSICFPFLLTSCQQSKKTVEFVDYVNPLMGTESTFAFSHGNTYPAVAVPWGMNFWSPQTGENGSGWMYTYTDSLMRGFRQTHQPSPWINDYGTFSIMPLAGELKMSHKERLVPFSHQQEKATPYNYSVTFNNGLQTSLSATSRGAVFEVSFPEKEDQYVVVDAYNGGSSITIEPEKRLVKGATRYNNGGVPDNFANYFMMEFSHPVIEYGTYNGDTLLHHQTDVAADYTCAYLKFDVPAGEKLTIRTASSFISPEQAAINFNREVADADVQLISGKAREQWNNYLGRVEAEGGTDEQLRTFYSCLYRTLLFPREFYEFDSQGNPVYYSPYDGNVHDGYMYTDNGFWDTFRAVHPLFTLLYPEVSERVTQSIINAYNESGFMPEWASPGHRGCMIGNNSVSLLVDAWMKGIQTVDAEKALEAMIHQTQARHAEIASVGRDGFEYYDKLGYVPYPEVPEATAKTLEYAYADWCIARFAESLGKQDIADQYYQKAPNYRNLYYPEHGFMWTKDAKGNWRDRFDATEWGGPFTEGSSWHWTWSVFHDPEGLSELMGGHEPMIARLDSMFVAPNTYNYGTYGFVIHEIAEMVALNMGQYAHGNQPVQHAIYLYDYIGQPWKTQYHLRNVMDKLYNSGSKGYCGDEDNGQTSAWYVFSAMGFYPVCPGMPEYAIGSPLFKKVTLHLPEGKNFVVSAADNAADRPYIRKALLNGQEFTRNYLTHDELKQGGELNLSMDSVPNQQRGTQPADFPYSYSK

[4] = target: T1, Alpha-1,2-mannosidase (BT_3990) (Bacteroides thetaiotaomicron); test: Activity of Bacteroides thetaiotaomicron GH92 alpha-mannosidase 3990 assessed as recovery of enzyme activity at 1 mM in presence of 7 mM Mn(2+) ions and in presence of 5 mM EDTA in 100 mM pH 7 MOPS buffer relative to enzyme activity in presence of calcium
[5] = target: T2, Alpha-1,2-mannosidase (BT_2199) (Bacteroides thetaiotaomicron); test: Activity of Bacteroides thetaiotaomicron GH92 alpha-mannosidase 2199 assessed as recovery of enzyme activity at 1 mM in presence of 7 mM Co(2+) ions and in presence of 5 mM EGTA in 100 mM pH 7 MOPS buffer relative to enzyme activity in presence of calcium
[6] = target: T1, Alpha-1,2-mannosidase (BT_3990) (Bacteroides thetaiotaomicron); test: Activity of Bacteroides thetaiotaomicron GH92 alpha-mannosidase 3990 assessed as recovery of enzyme activity at 1 mM in presence of 7 mM Sc(3+) ions and in presence of 5 mM EDTA in 100 mM pH 7 MOPS buffer relative to enzyme activity in presence of calcium
[7] = target: T2, Alpha-1,2-mannosidase (BT_2199) (Bacteroides thetaiotaomicron); test: Activity of Bacteroides thetaiotaomicron GH92 alpha-mannosidase 2199 assessed as recovery of enzyme activity at 1 mM in presence of 7 mM Co(2+) ions and in presence of 5 mM EDTA in 100 mM pH 7 MOPS buffer relative to enzyme activity in presence of calcium
[8] = target: T2, Alpha-1,2-mannosidase (BT_2199) (Bacteroides thetaiotaomicron); test: Activity of Bacteroides thetaiotaomicron GH92 alpha-mannosidase 2199 assessed as recovery of enzyme activity at 1 mM in presence of 7 mM Mn(2+) ions and in presence of 5 mM EDTA in 100 mM pH 7 MOPS buffer relative to enzyme activity in presence of calcium
[9] = target: T2, Alpha-1,2-mannosidase (BT_2199) (Bacteroides thetaiotaomicron); test: Activity of Bacteroides thetaiotaomicron GH92 alpha-mannosidase 2199 assessed as recovery of enzyme activity at 1 mM in presence of 7 mM Ca(2+) ions and in presence of 5 mM EDTA in 100 mM pH 7 MOPS buffer relative to enzyme activity in presence of calcium
[10] = target: T1, Alpha-1,2-mannosidase (BT_3990) (Bacteroides thetaiotaomicron); test: Activity of Bacteroides thetaiotaomicron GH92 alpha-mannosidase 3990 assessed as recovery of enzyme activity at 1 mM in presence of 7 mM Ca(2+) ions and in presence of 5 mM EDTA in 100 mM pH 7 MOPS buffer relative to enzyme activity in presence of calcium
[11] = target: T2, Alpha-1,2-mannosidase (BT_2199) (Bacteroides thetaiotaomicron); test: Activity of Bacteroides thetaiotaomicron GH92 alpha-mannosidase 2199 assessed as recovery of enzyme activity at 1 mM in presence of 7 mM Zn(2+) ions and in presence of 5 mM EDTA in 100 mM pH 7 MOPS buffer relative to enzyme activity in presence of calcium

Activity [1]: 6%
Activity [2]: 0%
Activity [3]: 0%
Activity [4]: 13%
Activity [5]: 12%
Activity [6]: 0%
Activity [7]: 7%
Activity [8]: 8%
Activity [9]: 100%
Activity [10]: 100%
Activity [11]: 0%
Structure (SMILES): O=[N+]([O-])c1ccc(O[C@H]2O[C@H](CO)[C@@H](O)[C@H](O)[C@@H]2O)cc1
